The assay addresses VEGFR2 (KDR/Flk-1) (Homo sapiens, UniProt P35968). Briefly: in vitro HTScan VEGFR2 kinase assay, colorimetric ELISA detection ([…] ATP). The class given is biochemical. A general note: ELISA stands for enzyme-linked immunosorbent assay.

pIC50: −log10 of the molar value.

Sequence of VEGFR2 (KDR/Flk-1) (P35968 20-1356): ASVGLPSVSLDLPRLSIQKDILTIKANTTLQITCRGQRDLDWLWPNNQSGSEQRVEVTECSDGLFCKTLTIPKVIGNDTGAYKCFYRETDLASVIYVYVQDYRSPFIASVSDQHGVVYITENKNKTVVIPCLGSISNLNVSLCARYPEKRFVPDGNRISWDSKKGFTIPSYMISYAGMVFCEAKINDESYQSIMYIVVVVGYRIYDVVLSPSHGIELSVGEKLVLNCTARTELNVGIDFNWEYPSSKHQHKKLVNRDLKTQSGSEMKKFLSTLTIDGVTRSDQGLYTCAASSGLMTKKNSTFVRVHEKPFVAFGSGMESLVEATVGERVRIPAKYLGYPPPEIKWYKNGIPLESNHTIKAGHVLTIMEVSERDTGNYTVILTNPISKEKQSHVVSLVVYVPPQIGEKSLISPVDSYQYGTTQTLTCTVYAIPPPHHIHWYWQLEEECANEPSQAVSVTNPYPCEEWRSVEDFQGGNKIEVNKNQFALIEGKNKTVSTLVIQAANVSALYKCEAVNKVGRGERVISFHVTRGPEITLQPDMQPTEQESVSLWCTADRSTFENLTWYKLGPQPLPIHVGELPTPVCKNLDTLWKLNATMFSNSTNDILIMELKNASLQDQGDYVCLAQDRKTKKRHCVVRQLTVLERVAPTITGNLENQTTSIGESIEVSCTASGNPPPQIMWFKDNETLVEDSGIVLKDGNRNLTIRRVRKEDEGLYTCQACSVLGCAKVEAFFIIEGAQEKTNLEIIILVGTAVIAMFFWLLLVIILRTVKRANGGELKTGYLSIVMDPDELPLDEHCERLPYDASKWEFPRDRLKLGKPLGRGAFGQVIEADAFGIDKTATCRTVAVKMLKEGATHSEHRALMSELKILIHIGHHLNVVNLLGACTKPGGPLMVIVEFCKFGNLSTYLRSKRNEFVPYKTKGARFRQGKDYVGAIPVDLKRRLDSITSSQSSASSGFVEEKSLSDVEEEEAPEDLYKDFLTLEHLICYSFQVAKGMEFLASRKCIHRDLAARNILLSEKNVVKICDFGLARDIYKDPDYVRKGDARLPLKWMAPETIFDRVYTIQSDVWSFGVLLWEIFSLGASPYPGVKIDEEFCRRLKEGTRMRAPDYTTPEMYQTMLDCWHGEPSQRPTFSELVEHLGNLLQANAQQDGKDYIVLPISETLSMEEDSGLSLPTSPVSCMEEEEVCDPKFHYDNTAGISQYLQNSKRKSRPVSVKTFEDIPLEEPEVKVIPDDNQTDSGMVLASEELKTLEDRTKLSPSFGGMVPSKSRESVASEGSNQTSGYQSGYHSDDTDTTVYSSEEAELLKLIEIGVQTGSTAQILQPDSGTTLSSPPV

The pIC50 is the IC50 on a negative log10 scale, so that one unit is a factor of ten. Higher therefore signals a low IC50. In the case of `COc1cc2c3c(c4cc(OC)c(OC)cc4c2cc1OC)CN1CCC[C@@H]1C3` [Tylophorine], the negative logarithm of the IC50 (pIC50) is ~5.04.
